Where a SMILES comes first, the peptide text is derived from it.

This note sets out measurements from publication PMC9667936, “Functional mapping of the 14-3-3 hub protein as a guide to design 14-3-3 molecular glues” (Chemical Science, 2022).

For one test, the target named is T1, 14-3-3γ/ChREBP (Homo sapiens, UniProt P61981+Q9NP71).
T1 construct: made in house; host or cells: E. coli NiCo21 (DE3) for 14-3-3 gamma; ChREBP is a synthetic peptide
T1 sequence (P61981 1-247): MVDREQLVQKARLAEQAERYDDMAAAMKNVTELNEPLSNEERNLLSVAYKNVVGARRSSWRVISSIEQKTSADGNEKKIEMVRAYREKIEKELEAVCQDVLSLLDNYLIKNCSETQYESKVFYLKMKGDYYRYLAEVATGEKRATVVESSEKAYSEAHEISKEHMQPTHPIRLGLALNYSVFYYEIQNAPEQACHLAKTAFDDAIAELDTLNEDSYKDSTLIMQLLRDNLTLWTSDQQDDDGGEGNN
T1 sequence (Q9NP71 118-142 partner limits assumed): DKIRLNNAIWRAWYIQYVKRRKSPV
The test can be described thus: 2D FA titration of 14-3-3/ChREBP and cooperativity analysis with thermodynamic equilibrium model. In kind it is binding. The note with it: determined by the thermodynamic model from 2D FA titrations; 95% confidence interval; read-out: apparent binding affinity of ChREBP for 14-3-3 (K^IID). As for the experimental part:
a four-parameter logistic model (4PL). Each measurement was performed in two independent […]
Fluorescence anisotropy (FA) - 2D-14-3-3/ChREBP titrations: 14-3-3γ was titrated in a 2-fold dilution series (starting at 300 µM 14-3-3γ) to 20 nM of fluorescein-labeled peptide 2d in FA buffer (10 mM HEPES pH 7.4, 150 mM NaCl, 0.1% (v/v) Tween20, 0.1% (w/v) BSA) in presence of 2-fold dilution series of unlabeled ChREBP peptide (0.01-10 µM). Dilution series were made in a polystyrene (non-binding) low-volume Corning Black Round Bottom 384-well plates (Corning 4514 or 4511). Measurements were performed directly after plate preparation, using a Tecan Infinite F500 plate reader at room temperature (lex: 485 ± 20 nm; lem: 535 ± 25 nm; mirror: Dichroic 510; flashes: 20; integration time: 50 ms; settle time:
0 ms; gain: optimal; and Z-position: calculated from well). Wells containing only FITC-peptide were used to set as G-factor at 35 mP. All data were analyzed using GraphPad Prism (7.00) for Windows and fitted using a four-parameter logistic model (4PL). […]
with R = 14-3-3, P = non-natural peptide (labelled), and C = ChREBP. The framework determined based on this system description the equilibrium equations needed to determine KDII and α. […] From this the model determined the KDII and α (with 95% confidence interval) and the error-landscape of the determine parameters. […]

In a further test the target is T2, ChREBP peptide (Homo sapiens, UniProt Q9NP71).
T2 chain: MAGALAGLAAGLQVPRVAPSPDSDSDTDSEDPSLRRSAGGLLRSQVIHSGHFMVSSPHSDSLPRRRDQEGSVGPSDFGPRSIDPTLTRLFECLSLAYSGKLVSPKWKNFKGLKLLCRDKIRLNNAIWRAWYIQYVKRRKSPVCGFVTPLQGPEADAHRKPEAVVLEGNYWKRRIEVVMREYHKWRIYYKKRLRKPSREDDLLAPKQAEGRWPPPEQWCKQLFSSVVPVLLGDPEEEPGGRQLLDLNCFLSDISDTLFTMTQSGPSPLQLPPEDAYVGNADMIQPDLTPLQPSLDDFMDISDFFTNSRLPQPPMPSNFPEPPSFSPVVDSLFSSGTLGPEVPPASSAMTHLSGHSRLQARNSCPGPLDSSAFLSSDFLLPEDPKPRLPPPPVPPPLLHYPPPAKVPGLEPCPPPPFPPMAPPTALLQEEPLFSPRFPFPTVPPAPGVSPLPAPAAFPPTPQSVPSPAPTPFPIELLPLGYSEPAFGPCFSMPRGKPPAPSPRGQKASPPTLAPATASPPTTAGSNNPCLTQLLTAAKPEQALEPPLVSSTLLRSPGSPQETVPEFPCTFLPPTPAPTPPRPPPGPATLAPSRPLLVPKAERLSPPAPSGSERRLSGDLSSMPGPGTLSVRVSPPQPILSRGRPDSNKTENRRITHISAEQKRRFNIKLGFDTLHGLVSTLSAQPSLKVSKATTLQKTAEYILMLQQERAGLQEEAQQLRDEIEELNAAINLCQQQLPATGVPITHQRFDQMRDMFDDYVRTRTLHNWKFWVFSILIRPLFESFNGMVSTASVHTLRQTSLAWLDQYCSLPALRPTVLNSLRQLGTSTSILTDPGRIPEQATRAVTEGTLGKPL
The test can be described thus: 2D fluorescence anisotropy titration, thermodynamic equilibrium model fit. (In general: Fluorescence polarisation rises when a labelled molecule tumbles more slowly, as on binding a larger partner.)

Consider `CC[C@H](C)[C@H](NC(=O)[C@H](C)NC(=O)[C@H](CC(N)=O)NC(=O)[C@H](CC(N)=O)NC(=O)[C@H](CC(C)C)NC(=O)[C@H](CCCNC(=N)N)NC(=O)[C@@H](NC(=O)[C@H](CCCCN)NC(=O)[C@H](CC(=O)O)NC(C)=O)[C@@H](C)CC)C(=O)N[C@@H](Cc1c[nH]c2ccccc12)C(=O)N[C@@H](CCCNC(=N)N)C(=O)N[C@@H](C)C(=O)N[C@@H](Cc1c[nH]c2ccccc12)C(=O)N[C@@H](Cc1ccc(O)cc1)C(=O)N[C@H](C(=O)N[C@@H](CCC(N)=O)C(=O)N[C@@H](Cc1ccc(O)cc1)C(=O)N[C@H](C(=O)N[C@@H](CCCCN)C(=O)N[C@@H](CCCNC(=N)N)C(=O)N[C@@H](CCCNC(=N)N)C(=O)N[C@@H](CCCCN)C(=O)N[C@@H](CO)C(=O)N1CCC[C@H]1C(=O)N[C@H](C(N)=O)C(C)C)C(C)C)[C@@H](C)CC` [ChREBP, reference compound] (Ac-DKIRLNNAIWRAWYIQYVKRRKSPV-NH2), for which the Kd at 14-3-3γ/ChREBP was 1600 nM.

B1: 14-3-3γ (protein)
chain: VDREQLVQKARLAEQAERYDDMAAAMKNVTELNEPLSNEERNLLSVAYKNVVGARRSSWRVISSIEQKTSADGNEKKIEMVRAYREKIEKELEAVCQDVLSLLDNYLIKNCSETQYESKVFYLKMKGDYYRYLAEVATGEKRATVVESSEKAYSEAHEISKEHMQPTHPIRLGLALNYSVFYYEIQNAPEQACHLAKTAFDDAIAELDTLNEDSYKDSTLIMQLLRDNLTLWTSDQQDDDGGEGNN
Regarding B1, in the test with ChREBP peptide, the Kd worked out at 1600 nM.
